# Tests used:
# [1] = Stability (half-life) in human blood plasma; format: in vitro ADME
# Method: The agent of the present invention may contain the peptide derivative of an aryl diester of alpha-aminoalkylphosphonic acids. […] These derivatives are contained in human blood plasma, and remarkably stable under a variety of circumstances. For example, the preferred inhibitor Suc-Val-Pro-Phe^P(OPh)2, particularly preferably, Suc-Val-Pro-L-Phe^P(OPh)2 contained in the agent of the present invention, has a half-life of about 20 hours in human blood plasma. This stability is important, because it is predicted that a peritoneal exudate neutralizes most of protease inhibitors to damage their activity. Aminoalkylphosphonic acids are analogous of alpha-amino acids, and designated by the generally acceptable three-letter abbreviation for an amino acid followed by the superscript P. For example, diphenyl alpha-(N-benzyloxycarbonylamino)ethylphosphonate which is related to alanine is abbreviated Cbz-Ala^P(OPh)2.
# chymase = molecular target: T1, chymase (Homo sapiens, UniProt P23946); experiment: Suppression of chymase activity in blood vessel tissue of the living body after use during operation; format: in vivo; conditions: used at 10 μM during the operation; effect for 4 weeks
# T1 construct: the chymase activity in the blood vessel tissue of the living body; from tissue; host or cells: blood vessel tissue of the living body
# T1 sequence (P23946 22-247): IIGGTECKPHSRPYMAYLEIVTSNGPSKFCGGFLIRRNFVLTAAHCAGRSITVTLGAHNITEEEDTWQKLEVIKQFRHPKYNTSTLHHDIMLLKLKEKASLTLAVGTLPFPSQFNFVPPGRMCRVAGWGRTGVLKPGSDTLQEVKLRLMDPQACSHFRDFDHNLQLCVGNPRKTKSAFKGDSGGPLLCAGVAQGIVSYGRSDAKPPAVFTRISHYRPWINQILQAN
# Method: The agent of the present invention allows at least one protease inhibitor to be administered in a substantially sufficient amount so that the inhibitor may exist by an effective concentration in the site of heart to protect. […] The effective administration amount of chymase inhibitor (Suc-Val-Pro-L-Phe^P(Oph)2) can be selected in the range from 0.0001 to 100 mg per 1 kg of adult body weight, per one day. For example, it is administered intravenously by an amount selected in the range from 0.001 to 100 mg, preferably from 0.01 to 1 mg, and orally by an amount selected in the range from 0.1 to 100 mg, preferably from 0.1 to 10 mg.
# [2] = tested on: Syrian hamsters myocardial infarction model; experiment: Survival rate after myocardial infarction (left coronary artery ligation) with oral administration; format: in vivo; conditions: placebo 39.1%
# Method: The left coronary artery was ligated in Syrian hamsters (SLC, Co., Ltd., Shizuoka, Japan), 6 weeks of age, weighing 85 to 90 g, to prepare a myocardial infarction model (Jpn. J. Pharmacol., 86, p. 203-214 2001 life Sci. 71 p. 437-446 2002). […] It should be noted that the significant test was performed by log rank test using the survival curve.
Compound,half-life in human blood plasma [1],chymase activity in the blood vessel tissue of the living body (chymase),"survival rate up to the 14th day ([2]; 10 mg/kg orally once a day, administered from the day before the operation, log rank test significant, FIG. 1) [%]","survival rate up to the 14th day ([2]; 10 mg/kg orally, administered from the day after the operation, significant, FIG. 2) [%]"
Suc-Val-Pro-Phe^P(OPh)2,about 20 hours,,,
CC(C)C(NC(=O)CCC(=O)O)C(=O)N1CCCC1C(=O)NC(Cc1ccccc1)P(=O)(Oc1ccccc1)Oc1ccccc1 [Suc-Val-Pro-L-Phe^P(OPh)2],about 20 hours,suppress significantly,88.9,88.9
